The results in this text go back to patent US20030100772A1, “Oxygen-containing heterocyclic compounds” (priority 2000, published 2003).

In series [1] the target is T1, recombinant human PDE IV enzyme (HSPDE4A4B) (Homo sapiens, UniProt P27815).
T1 construct: made in house; host or cells: Sf9 insect cells
Briefly: Inhibition test on recombinant human PDE IV enzyme. Format: biochemical. The settings on record: [3H]cAMP 1 μmol/L substrate, read-out: enzyme inhibitory activity. The protocol:
Inhibition Test on Recombinant Human PDE IV Enzyme
Human phosphodiesterase cDNA (HSPDE4A4B) was isolated from HL-60 cells. The expected amino acid sequence is the same as that (HSPDE4A5) reported by G. Bolger et al. [Mol. Cell Biol. 13, p. 6558 (1993)]. This recombinant protein was expressed in Sf9 insect cells. The PDE activity was determined by the following two step process according to the method by R. L. Kincaid and V. C. Manganiello [Method. Enzymol., 159, pp. 457-470 (1988)]. Using [^3H]cAMP (final concentration: 1 μmol/L) as a substrate, the reaction was conducted in a standard mixture containing N,N-bis(2-hydroxyethyl)-2-aminoethanesulfonic acid (50 mmol/L, pH 7.2), MgCl2 (1 mmol/L) and soybean trypsin inhibitor (0.1 mg/mL). The reaction was started by addition of the enzyme, and the incubation was conducted at 30° C. for 10 to 30 minutes. The reaction was terminated with hydrochloric acid, and the formed 5′-AMP was completely decomposed with […]. After chromatography with DEAE-Sephadex A-25, the eluted [^3H]-adenosine was counted by a scintillation counter. The test compounds were added after dissolved in DMSO (concentration: 1.7%).

T1 sequence (P27815 whole entry): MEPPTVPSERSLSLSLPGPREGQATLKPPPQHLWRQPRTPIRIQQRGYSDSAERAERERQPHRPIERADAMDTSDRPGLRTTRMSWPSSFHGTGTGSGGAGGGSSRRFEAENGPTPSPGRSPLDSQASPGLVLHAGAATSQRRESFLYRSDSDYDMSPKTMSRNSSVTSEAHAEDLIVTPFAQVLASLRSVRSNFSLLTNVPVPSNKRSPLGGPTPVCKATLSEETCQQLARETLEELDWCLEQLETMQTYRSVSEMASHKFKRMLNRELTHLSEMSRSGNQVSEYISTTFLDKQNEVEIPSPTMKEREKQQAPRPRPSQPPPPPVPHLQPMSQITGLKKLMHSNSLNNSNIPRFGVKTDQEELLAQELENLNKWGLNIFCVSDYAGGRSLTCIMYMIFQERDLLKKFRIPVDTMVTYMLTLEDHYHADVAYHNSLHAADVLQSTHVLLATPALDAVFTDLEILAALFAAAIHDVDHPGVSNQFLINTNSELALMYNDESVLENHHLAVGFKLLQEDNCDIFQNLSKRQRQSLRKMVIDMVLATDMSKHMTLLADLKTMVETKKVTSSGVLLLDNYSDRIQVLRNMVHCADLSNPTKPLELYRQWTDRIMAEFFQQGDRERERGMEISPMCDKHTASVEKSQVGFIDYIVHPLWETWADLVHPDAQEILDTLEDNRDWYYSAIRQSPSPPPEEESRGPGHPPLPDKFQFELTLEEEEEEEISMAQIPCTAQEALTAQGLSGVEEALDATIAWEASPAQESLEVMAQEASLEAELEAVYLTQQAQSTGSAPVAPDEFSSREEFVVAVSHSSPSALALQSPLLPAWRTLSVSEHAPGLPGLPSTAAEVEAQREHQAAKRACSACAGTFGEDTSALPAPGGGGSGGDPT

As usually defined, the melting point is the temperature, or range, at which the solid turns liquid. `COc1ccc(C2(C3CCCCC3=O)CCC(C(=O)O)CC2)c2c1OCCO2` (single isomer, unassigned) [Compound 9b, 4-(Cyclohexanon-2-yl)-4-(8-methoxy-1,4-benzodioxan-5-yl)-cyclohexanecarboxylic Acid]: the melting point is 222 to 223 °C.

Regarding `COc1ccc(C2(C3CCCCC3=O)CCC(C(=O)O)CC2)c2c1OCCO2` (single isomer, unassigned) [Compound 9a, 4-(Cyclohexanon-2-yl)-4-(8-methoxy-1,4-benzodioxan-5-yl)-cyclohexanecarboxylic Acid], the melting point fell in the range of 243 to 244 °C.

With `COc1ccc(C2(C3CCCC3=O)CCC(C(=O)O)CC2)c2c1OCCO2` (centres unmarked) [Compound 8, 4-(Cyclopentanon-2-yl)-4-(8-methoxy-1,4-benzodioxan-5-yl)-cyclohexanecarboxylic Acid], the melting point is 241 to 243 °C. For the same compound, the inhibition at 10 µM in series [1] (drug concentration of 10 μmol/L) was at least 30%.

For `CCOC(=O)C=CC1(c2ccc(OC)c3c2OCCO3)CCC(=O)CC1` [Compound 13, Ethyl 3-[1-(8-methoxy-1,4-benzodioxan-5-yl)-4-oxocyclohexyl]acrylate], in series [1] (concentration of 1 μmol/L), the inhibition at 1 µM is at least 99%.
